Measured values reported in US8283322B2, “Formulations for nonsurgical exogenous crosslink therapy” (Orthopeutics, LP, priority 2008, dated 2012).
Entries after “also recorded” stand apart in the source; their conditions may differ.

Legend:
[1] = system: homogenized annulus tissue; assay: Crosslinking of annulus tissue quantified by hydroxyproline release upon collagenase digestion; conditions: for concentration at which crosslinking was complete / a plateau was reached: FIG. 1, 1 hr (MG), 6 hrs (DT and LT); for pH: optimized pH for crosslinking; for pH dependence of crosslinking: sub-saturating crosslinker, pH 4-9 with a different buffer at each pH (FIG. 2, FIG. 3); for effect of buffer (EPPS vs Tris) on crosslinking: 100 mM EPPS or 100 mM Tris, GP at pH 9; for effect of phosphate on crosslinking: Tris buffer pH 8, increasing concentrations of sodium phosphate
Experimental: (§1) Increasing concentrations of protein crosslinkers were added to homogenized annulus tissue and incubated for either 1 hr (EDC, GP, MG, PA and GA), 2 hrs (TG) or 6 hrs (DT and LT). Crosslinking was quantified by determining the amount of hydroxyproline (HYP) released from the tissue by collagenase digestion.
(§2) Homogenized annulus tissue was treated with sub-saturating concentrations of various crosslinkers at varying pH and incubated for either 1 hr (EDC, GP, MG, PA and GA), 2 hrs (TG) or 6 hrs (LT). Crosslinking was quantified by determining the amount of hydroxyproline (HYP) released from the tissue by collagenase digestion.
(§3) In order to determine the effective concentration range for various crosslinking reagents we incubated samples of annulus tissue in increasing concentrations of either genipin (GP), methylglyoxal (MG), proanthrocyanidin (PA), L-threose (LT), D-threose (DT), dimethylaminopropyl) carbodiimide hydrochloride (EDC) or transglutaminase (TG). Crosslinking efficiency was measured indirectly by monitoring the release of peptides containing hydroxyproline upon subsequent digestion with collagenase. Glutaraldehyde (GA), a commonly used, but highly toxic protein crosslinker was used as a positive control.
(§4) To test this hypothesis, the inventors subjected calf annulus fibrosus tissue to crosslinking with sub-saturating levels of our reagents at varying pH. In order to maintain optimal buffering capacity at each pH, different buffers were selected for each point.

[2] = system: homogenized annulus tissue; conditions: bovine
Experimental: as §1, §2, §3, §4

[3] = in water; proposed values; cited from earlier work
[4] = at 20° C.; cited from earlier work
[5] = saturating crosslinker concentration, Table 5
[6] = sub-saturating MG, 100 mM MOPS pH 7

| Molecule | concentration at which crosslinking was complete / a plateau was reached [1] | [Saturating] [1, 5] | pH ([1]; Table 5) | pH dependence of crosslinking [1] | T1/2 [2] | further results |
| --- | --- | --- | --- | --- | --- | --- |
| O=C[C@@H](O)[C@H](O)CO [D-Threose, D-threose] | approximately 50 mM | 50 mM | – | – | – | – |
| CCN=C=NCCCN(C)C.Cl [EDC, 1-ethyl-3-[3-dimethylaminopropyl]carbodiimide hydrochloride] | – | 2.5 to 5 mM | 6 | required a relatively narrow pH range | – | – |
| O=CCCCC=O [Glutaraldehyde, reference compound] | – | 1 to 2 mM | 8-9 | – | <5 min | – |
| O=C[C@H](O)[C@@H](O)CO [L-Threose, L-threose] | approximately 50 mM | 50 mM | 8-9 | function better in disc tissue at the higher pH levels | 150 min | max solubility [3]: comparable to MG; effect of buffer (EPPS vs Tris) on crosslinking [1]: did not see any difference |
| CC(=O)C=O [Methylglyoxal, methylglyoxal] | 50 mM | – | 8-9 | – | 14 to 20 min | max solubility [3]: about 6 M; enhancement of crosslinking by phosphate ([1]; 100 mM EPPS pH 8, 100 mM potassium phosphate, p=0.1): approximately 3 fold; effect of phosphate on crosslinking [1]: enhance disc tissue crosslinking in a dose-dependent manner; [Saturating] ([1]; at pH 7): 30 to 50 mM; [Saturating] ([1]; at pH 8 (100 mM EPPS buffer), listed as MG): 10 mM; borohydride concentration at which the crosslinking reaction was enhanced [1, 6]: 1 to 5 mM; effect of 10 mM borohydride on crosslinking [1, 6]: inhibitory; borohydride concentration at which enhancement was observed ([1]; sub-saturating MG, EPPS buffer pH 8.0): below 1.5 mM; activity in EPPS when compared to Tris ([1]; sub-saturating MG, pH 8, 100 mM buffer, p<0.0001, n=10): ~2 fold; pH dependence of crosslinking ([1]; listed as MG): function better in disc tissue at the higher pH levels; also recorded: equally efficient at pH 8 and 9; also recorded: marked increase in its crosslinking ability at pH 8 compared to pH 7 |
| proanthrocyanidin | – | 0.1% | 5-9 | relatively insensitive to pH | <5 min | effect of buffer (EPPS vs Tris) on crosslinking [1]: did not see any difference; effect of phosphate on crosslinking [1]: did not have any substantial |
| tris(hydroxymethyl)aminomethane | – | – | – | – | – | pKa [4]: 8.3 |
| transglutaminase (protein, UniProt P21980 2-687, looked up) Protein-glutamine …: AEELVLERCDLELETNGRDHHTADLCREKLVVRRGQPFWLTLHFEGRNYEASVDSLTFSVVTGPAPSQEAGTKARFPLRDAVEEGDWTATVVDQQDCTLSLQLTTPANAPIGLYRLSLEASTGYQGSSFVLGHFILLFNAWCPADAVYLDSEEERQEYVLTQQGFIYQGSAKFIKNIPWNFGQFEDGILDICLILLDVNPKFLKNAGRDCSRRSSPVYVGRVVSGMVNCNDDQGVLLGRWDNNYGDGVSPMSWIGSVDILRRWKNHGCQRVKYGQCWVFAAVACTVLRCLGIPTRVVTNYNSAHDQNSNLLIEYFRNEFGEIQGDKSEMIWNFHCWVESWMTRPDLQPGYEGWQALDPTPQEKSEGTYCCGPVPVRAIKEGDLSTKYDAPFVFAEVNADVVDWIQQDDGSVHKSINRSLIVGLKISTKSVGRDEREDITHTYKYPEGSSEEREAFTRANHLNKLAEKEETGMAMRIRVGQSMNMGSDFDVFAHITNNTAEEYVCRLLLCARTVSYNGILGPECGTKYLLNLNLEPFSEKSVPLCILYEKYRDCLTESNLIKVRALLVEPVINSYLLAERDLYLENPEIKIRILGEPKQKRKLVAEVSLQNPLPVALEGCTFTVEGAGLTEEQKTVEIPDPVEAGEEVKVRMDLLPLHMGLHKLVVNFESDKLKAVKGFRNVIIGPA | – | – | 7-8 | required a relatively narrow pH range | – | [Saturating] ([1]; 2 hrs incubation, highest concentration tested 2 U/ml): >2 U/ml; [Saturating] ([1]; 2 hrs incubation, highest concentration tested 2 U/ml, listed as TG): > 2 U/ml |
